Results taken from patent US11865157B2, “Compositions and methods of targeting cancer stem cells” (University of Houston System, priority 2016, dated 2024).
Entries after “also recorded” stand apart in the source; their conditions may differ. Numbered stars: 1 amine (or outer) side, 2 acyl side, 3 side chain; on linkers, the order of the positions; unused ones are H or OH. Bridge positions count the residues as written; N and C are the ends. Square brackets hold non-standard residues; d marks the D form. Peptide text beside a SMILES is read from it. I, II: the chains in the order shown. Gly(N-piperonyl) = O=C(O)CNCc1ccc2c(c1)OCO2; X1 = CC(c1ccccc1)N(CC(=O)[*:2])[*:1]; Nlys = NCCCCNCC(=O)O; Nme = COCCNCC(=O)O

Key:
Assay type in all cases: cell-based
[1] = tested on: H358 ALDH− cells; test: MTS survival assay on sorted cells
Procedure: To verify that PCS2-treatment has a direct effect on the survival of CSCs, an MTS survival assay was performed on sorted H358 cells. The assay is based on the reduction of MTS tetrazolium compound by viable cells to generate a colored formazan product that is soluble in cell culture media. This conversion is thought to be carried out by NAD(P)H-dependent dehydrogenase enzymes in metabolically active cells. The formazan dye produced by viable cells was quantified by measuring the absorbance at 490-500 nm. H358 cells were stained using the ALDEFluor, then the ALDH+ cells were isolated by the MD Anderson Flow Cytometry and Cell Sorting core. The sorted ALDH+ cells were treated with 1 nM to 100 μM of PCS2D1 for 24 hours, and then the relative amount of surviving cells was determined by MTS. The number of cells in the ALDH+ fraction decreased under the treatment of PCS2D1, while ALDH^− cells were unaffected (FIG. 10). […] Furthermore, this peptoid is still at the initial stage of development and further modifications can be made to optimize and increase the potency.
To verify that PCS2-treatment has a direct effect on the survival of CSCs, an MTS survival assay was performed on sorted H358 cells as described in Example 4. The number of cells in the ALDH+ fraction decreased under the treatment of PCS2D1, while ALDH^− cells were unaffected (FIG. 21). The IC50 was around 2 μM. […]

[2] = tested on: H358 unsorted cells; test: Scratch (wound healing) assay; details: 10 μM and higher, 24 hours
Procedure: Another stem-cell-associated phenotype is the capacity of stem cells to migrate and repair gaps in a tissue or cell culture. To determine if this capacity is affected by PCS2D1, a scratch (would healing) assay was performed on H358 cells after 24 hour treatment of 0, 0.3, 1, 3 10, 30 or 100 μM of PCS2D1. Each well of confluent H358 unsorted cells was scratched using a 1000 μL pipet tip, washed, then treated with PCS2D1 for 24 hours. Each well was then stained, and the average area of the remaining scratch was calculated from a microscope viewing window near the center of the well.

[3] = tested on: unsorted H358 cells; test: Expression of CSC markers after treatment; details: 100 μM, after 96 hours of treatment
[4] = tested on: unsorted H358 cells; test: MTS cell-proliferation assay on unsorted cells
Procedure: Further experiments were conducted to evaluate how PCS2 affects the proliferation of unsorted cancer cell populations. The standard MTS cell-proliferation assay was performed on unsorted H358 cells (known to contain 5-15% of CSCs) and measured proliferation rates over 6 days, at concentrations ranging from 100 nM to 100 μM of PCS2D1.

[5] = tested on: H358 colonies; test: Variation of the clonogenicity assay: treatment of established colonies, crystal violet and ALDEFluor staining
Procedure: Another set of experiments were designed to evaluate if differentiated cells from CSCs were targeted by PCS2D1 as well. A variation of the clonogenicity assay was performed, where about 300 unsorted H358 cells were plated to 35 mm plates each and allowed to form colonies for 7 days. After that time, the colonies were treated with either 0, 1, 10, 30, or 100 μM of PCS2D1 for 24 hours, and then stained with crystal violet. The colonies were examined under a microscope. […] To determine if the cells lost are CSCs or the differentiated cells, ALDEFluor staining was performed against some of the colonies at 0 and 100 μM treatment.
(§1) The clonogenicity assay was repeated with H358 cells, 500 cells/well, using 0, 10, 30 and 100 μM PCS2 treatment over 2 weeks. […] To confirm that this was due to the specific targeting on CSCs, the clonogenicity assay was performed again over 8 days, with the treatment performed from day 7 to 8 instead, to allow the colonies to establish. This was done alongside control cells plated on chamber slides and then grown under the same conditions.

[6] = tested on: H358 cells; test: Clonogenicity assay under treatment; details: 2 weeks
Procedure: To further validate that PCS2D1 inhibiting CSCs, the effects of PCS2D1 against a stem-cell-associated phenotype were studied with regards to the capacity to form colonies from a single cell by using the clonogenicity assay. About 300 cells were plated onto 35 mm cell culture plates with either 0, 1, 10, 30, or 100 μM of PCS2D1, and allowed to grow for 2 weeks. After staining with crystal violet, both the number of colonies and the overall morphology of the colonies were evaluated.
as §1

COCCNCC(=O)N(CCCCN)CC(=O)N(CC(=O)N(CC(=O)N(CCCCN)CC(=O)N[C@@H](CCCCN)C(=O)N[C@H](CCCCN)C(=O)N[C@@H](CCSC)C(=O)NCCCC[C@H](NC(=O)[C@H](CCSC)NC(=O)[C@@H](CCCCN)NC(=O)[C@H](CCCCN)NC(=O)CN(CCCCN)C(=O)CN(C(=O)CN(Cc1ccc2c(c1)OCO2)C(=O)CN(CCCCN)C(=O)CNCCOC)C(C)c1ccccc1)C(N)=O)C(C)c1ccccc1)Cc1ccc2c(c1)OCO2 (stereo partly drawn) [PCS2D1] (I: H-[Nme][Nlys][Gly(N-piperonyl)][X1][Nlys]K[dK]MK-NH2 / II: H-[Nme][Nlys][Gly(N-piperonyl)][X1][Nlys]K[dK]M; amide I:9-II:C; N-terminus and C-terminus assumed)
effect on ALDH− cells [1]: unaffected
migration (area of remaining scratch) [2]: migration was significantly inhibited
expression of ALDH1A3 [3]: significant drop
expression of PLEC [3]: significant drop
expression of SOX2 [3]: significant drop
overall growth of the H358 cell line ([4]; 30 μM and higher, by day 2): significantly decreased
growth of the H358 cell line ([4]; 100 μM, over 6 days): no significant growth
ALDH fluorescence of colonies ([5]; 100 μM, ALDEFluor staining): no significant fluorescence; also recorded: complete loss of ALDH^+ cells
ALDH fluorescent cell number ([5]; 10-30 μM, Aldefluor assay): reduction in fluorescent cell number
loss of cells from the colony center ([5]; colonies grown 7 days, then 24 hours treatment at 10 μM and higher): significant loss of cells from the colony center; also recorded: significant loss of “central” cells
morphology of the colonies ([6]; 10 μM): significantly more dispersed colonies
colonies formed ([6]; about 300 cells, 30 and 100 μM): significant decrease in colonies formed
